Where a name gives a salt, the structure may show the parent alone. Read-outs that look alike come from different tables or passages of the source.
Target: T1, Human CARM1 (PRMT4) (Homo sapiens, UniProt Q86X55)
T1 construct: Flag-CARM1-His; made in house; host or cells: HEK 293F cells (BacMam baculovirus)
T1 sequence (Q86X55 1-585 isoform Q86X55-1): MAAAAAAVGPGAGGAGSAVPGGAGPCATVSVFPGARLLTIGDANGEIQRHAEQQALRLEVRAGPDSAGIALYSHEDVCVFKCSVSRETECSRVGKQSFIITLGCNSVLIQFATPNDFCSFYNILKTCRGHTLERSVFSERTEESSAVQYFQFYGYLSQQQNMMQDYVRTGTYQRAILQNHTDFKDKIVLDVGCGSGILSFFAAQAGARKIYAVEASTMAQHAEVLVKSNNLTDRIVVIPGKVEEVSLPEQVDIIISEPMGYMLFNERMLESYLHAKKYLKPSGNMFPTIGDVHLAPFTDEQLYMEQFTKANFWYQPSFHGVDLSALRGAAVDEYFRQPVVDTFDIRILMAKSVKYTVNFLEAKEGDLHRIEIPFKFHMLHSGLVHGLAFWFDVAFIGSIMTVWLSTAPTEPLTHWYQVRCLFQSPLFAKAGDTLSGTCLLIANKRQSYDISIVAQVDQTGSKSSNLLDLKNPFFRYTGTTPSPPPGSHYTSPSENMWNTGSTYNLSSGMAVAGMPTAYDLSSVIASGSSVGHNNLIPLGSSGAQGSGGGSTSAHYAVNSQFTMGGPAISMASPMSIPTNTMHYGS
Assay: CARM1 Biochemical Assay (3H-SAM Flashplate, peptide substrate)
From the text: S-adenosylmethionine (SAM), S-adenosylhomocysteine (SAH), bicine, Tween20, dimethylsulfoxide (DMSO), bovine skin gelatin (BSG), sodium butyrate and Tris(2-carboxyethyl)phosphine hydrochloride solution (TCEP) were purchased from Sigma-Aldrich at the highest level of purity possible. ^3H-SAM was purchase from American Radiolabeled Chemicals with a specific activity of 80 Ci/mmol. 384-well streptavidin Flashplates were purchased from PerkinElmer.
Peptide representative of human histone H3 residues 16-30 was synthesized with an N-terminal linker-affinity tag motif and a C-terminal amide cap by 21st Century Biochemicals. […] The sequence was Biot-Ahx-[…]-amide and contained a monomethylated arginine at position 26 (SEQ ID NO.: 14).
Recombinant baculovirus were generated according to Bac-to-Bac kit instructions (Life Technologies). […] Infections were carried out at 37° C. for 48 hours, harvested by centrifugation, and stored at −80° C. for purification.
Column was washed with 500 mM NaCl in buffer A and Flag-CARM1-His was eluted with 200 ug/ml FLAG peptide in buffer A. Pooled fractions were dialyzed in 20 mM Tris, 150 mM NaCl, 5% glycerol and 1 mM DTT, pH 7.8.
General Procedure for CARM1 Enzyme Assays on Peptide Substrates.
The assays were all performed in a buffer consisting of 20 mM Bicine (pH=7.6), 1 mM TCEP, 0.005% BSG, and 0.002% Tween 20, prepared on the day of use. […] DMSO (1 ul) was added to Columns 11, 12, 23, 24, rows A-H for the maximum signal control and 1 ul of SAH, a known product and inhibitor of CARM1, was added to columns 11, 12, 23, 24, rows I-P for the minimum signal control. A cocktail (40 ul) containing the CARM1 enzyme was added by Multidrop Combi (Thermo-Fisher). The compounds were allowed to incubate with CARM1 for 30 min at room temperature, then a cocktail (10 ul) containing ^3H-SAM and peptide was added to initiate the reaction (final volume=51 ul). […] The assays were stopped by the addition of non-radiolabeled SAM (10 ul) to a final concentration of 300 uM, which dilutes the ^3H-SAM to a level where its incorporation into the peptide substrate is no longer detectable. 50 ul of the reaction in the 384-well polypropylene plate was then transferred to a 384-well Flashplate and the biotinylated peptides were allowed to bind to the streptavidin surface for at least 1 hour before being washed once with 0.1% Tween20 in a Biotek ELx405 plate washer. The plates were then read in a PerkinElmer TopCount plate reader to measure the quantity of ^3H-labeled peptide bound to the Flashplate surface, measured as disintegrations per minute (dpm) or alternatively, referred to as counts per minute (cpm).
Where dpm=disintegrations per minute, cmpd=signal in assay well, and min and max are the respective minimum and maximum signal controls.
Where top and bottom are the normally allowed to float, but may be fixed at 100 or 0 respectively in a 3-parameter fit. The Hill Coefficient normally allowed to float but may also be fixed at 1 in a 3-parameter fit. Y is the % inhibition and X is the compound concentration.

[1] = single experiment or average of multiple experiments

| SMILES | IC50 [1] [nM] | IC50 [nM] |
| --- | --- | --- |
| CCn1ncc(CN(C)CCNC)c1-c1ccc(F)cc1 [Compound 7] | 2660 |  |
| CCn1cc(CN(C)CCNC)c(-c2ccc(F)cc2)n1 [Compound 8] | 3460 |  |
| CN(CCN)Cc1c[nH]nc1-c1ccc(OCC(F)(F)F)cc1 [Compound 96] | 76.5 |  |
| CC(C)Oc1ccc(-c2n[nH]cc2CN(C)CCN)cc1F [Compound 97] | 511 |  |
| CN(CCN)Cc1c[nH]nc1-c1ccc(C2CCOCC2)cc1 [Compound 98] | 439 |  |
| CN(CCN)Cc1c[nH]nc1-c1ccc(F)cc1F [Compound 99] | 7610 |  |
| CN(CCN)Cc1n[nH]cc1-c1ccc(C#N)cc1 [Compound 100] | 4130 |  |
| CC(C)c1ccc(-c2c[nH]nc2CN(C)CCN)cc1 [Compound 101] | 4760 |  |
| CN(CCN)Cc1n[nH]cc1-c1ccc(Cl)cc1 [Compound 102] | 1060 |  |
| CN(CCN)Cc1n[nH]cc1-c1ccc(C(F)(F)F)cc1 [Compound 103] | 1480 |  |
| CN(CCN)Cc1n[nH]cc1-c1ccc(C2CC2)cc1 [Compound 104] | 1960 |  |
| CN(CCN)Cc1n[nH]cc1-c1ccc(OC(F)(F)F)cc1 [Compound 105] | 3060 |  |
| COc1ccc(-c2n[nH]cc2CN(C)CCN)c(F)c1 [Compound 107] | 2860 |  |
| Cc1ccc(-c2n[nH]cc2CN(C)CCN)c(F)c1 [Compound 108] | 1530 |  |
| COc1ccccc1-c1n[nH]cc1CN(C)CCN [Compound 109] | 5210 |  |
| Cc1cc(C#N)ccc1-c1n[nH]cc1CN(C)CCN [Compound 110] | 8770 |  |
| CN(CCN)Cc1c[nH]nc1-c1cc(F)cc(F)c1 [Compound 111] | 458 |  |
| CC(=O)c1cccc(-c2n[nH]cc2CN(C)CCN)c1 [Compound 112] | 2440 |  |
| CN(CCN)Cc1c[nH]nc1-c1ccc(OC2CC2)cc1 [Compound 114] | 332 |  |
| CC(O)c1ccc(-c2n[nH]cc2CN(C)CCN)cc1 (stereo not shown) [Compound 115] | 3530 |  |
| CN(CCN)Cc1c[nH]nc1-c1ccc(C2CC2)cc1 [Compound 116] | 1220 |  |
| CN(CCN)Cc1c[nH]nc1-c1ccc(C(F)(F)F)c(Cl)c1 [Compound 117] | 602 |  |
| CN(CCN)Cc1c[nH]nc1-c1ccc(Cl)c(F)c1 [Compound 118] | 114 |  |

| SMILES | IC50 [1] [nM] | IC50 [nM] |
| --- | --- | --- |
| CN(CCN)Cc1n[nH]cc1-c1ccc(OC2CC2)cc1 [Compound 119] | 441 |  |
| CN(CCN)Cc1c[nH]nc1-c1cc(F)cc(Cl)c1 [Compound 121] | 216 |  |
| CN(CCN)Cc1c[nH]nc1-c1cccc(Cl)c1 [Compound 122] | 405 |  |
| CN(CCN)Cc1c[nH]nc1-c1cccc(Cl)c1F [Compound 123] | 1870 |  |
| CN(CCN)Cc1c[nH]nc1-c1ccc(F)c(Cl)c1 [Compound 124] | 545 |  |
| COc1ccc(-c2n[nH]cc2CN(C)CCN)cc1Cl [Compound 125] | 1440 |  |
| Cc1ccc(-c2n[nH]cc2CN(C)CCN)cc1Cl [Compound 126] | 102 |  |
| COc1cc(Cl)cc(-c2n[nH]cc2CN(C)CCN)c1 [Compound 127] | 1120 |  |
| Cc1c(F)cccc1-c1n[nH]cc1CN(C)CCN [Compound 129] | 2420 |  |
| COc1cccc(-c2n[nH]cc2CN(C)CCN)c1 [Compound 130] | 2410 |  |
| Cc1cccc(-c2n[nH]cc2CN(C)CCN)c1 [Compound 131] | 1180 |  |
| CN(CCN)Cc1c[nH]nc1-c1ccc(Cl)cc1F [Compound 132] | 2110 |  |
| Cc1cc(Cl)ccc1-c1n[nH]cc1CN(C)CCN [Compound 133] | 4270 |  |
| COc1ccc(-c2n[nH]cc2CN(C)CCN)cc1F [Compound 134] | 2600 |  |
| CCNC(=O)c1ccc(-c2n[nH]cc2CN(C)CCN)cc1 [Compound 136] | 2070 |  |
| CN(CCN)Cc1c[nH]nc1-c1cc(Cl)cc(Cl)c1 [Compound 137] | 849 |  |
| CN(CCN)Cc1n[nH]cc1-c1ccc(OC(F)F)cc1 [Compound 138] | 2700 |  |
| CN(CCN)Cc1c[nH]nc1-c1ccc(C(F)(F)F)c(F)c1 [Compound 141] | 1370 |  |
| COc1cc(-c2n[nH]cc2CN(C)CCN)ccc1F [Compound 142] | 1290 |  |
| CCN(CC)C(=O)c1ccc(-c2n[nH]cc2CN(C)CCN)cc1 [Compound 143] | 5850 |  |
| CC(C)Oc1ccc(-c2c[nH]nc2CN(C)CCN)cc1F [Compound 144] | 4620 |  |
| CNCCN(C)Cc1cnn(C)c1-c1ccc(OC(C)C)cc1 [Compound 244, hydrochloride] | 92.5 | < 100 |
